Measurements published in EP2353599A1, “8-hydroxyquinolines as inhibitors of cathepsin B” (University of Ljubljana, priority 2010, dated 2011).
Entries after “also recorded” stand apart in the source; their conditions may differ.

Key:
Cathepsin B [1] = molecular target: T1, Cathepsin B (Homo sapiens, UniProt P07858); experiment: Cathepsin B endopeptidase activity, enzyme kinetics with substrate Z-RR-AMC; type: biochemical; conditions: endopeptidase activity, substrate Z-RR-AMC, pH 6.0, 37°C
Procedure: The effect of 8-hydroxyquinolines on cathepsin B enzymatic activity was assessed using enzyme kinetics. First, the effect of 8-hydroxyquinolines on cathepsin B endopeptidase activity was assessed using the cathepsin B specific endopeptidase substrate Z-RR-AMC. 5 µl of the Z-RR-AMC (final concentration 60, 180 and 360 µM) and 5 µl of respective compound at increasing concentrations were added to wells of a black microplate. 90 µl of human recombinant cathepsin B was then added to a final concentration of 0.4 nM in activation buffer (100 mM phosphate buffer, pH 6.0 with 0.1 % PEG, 5 mM DTT and 1.5 mM EDTA). All assay mixtures contained a constant amount of DMSO, i.e. 5 %. Formation of fluorescent degradation product was continuously monitored at 380 nm ± 20 nm excitation and […] ± 10 nm emission wavelengths on Tecan Safire^2™ at 37°C. Mechanism and the constant of inhibition (Ki) of cathepsin B endopeptidase activity were determined using the graphical method according to Cornish-Bowden (Cornish-Bowden A: A Simple Graphical Method for Determining the Inhibition Constants of Mixed, Uncompetitive and Non-Competitive Inhibitors. Biochem J 1974, 137:143-4.) and using the SigmaPlot® 11, Enzyme Kinetics Module™ 1.3. Table I. Results of testing the compounds according to Formula (I) on cathepsin B endopeptidase activity.

Cathepsin B [2] = molecular target: T1, Cathepsin B; experiment: Reversibility with active site probe DCG-04 (labelling, SDS-PAGE, blot); type: binding; conditions: 0.1, 1, 10 and 50 µM inhibitor, 1 h, then 2 µM DCG-04
From the text: Second, the reversibility of 5-nitro-8-hydroxyquinoline was also studied with the active site probe DCG-04. DCG-04 is a derivative of an irreversible epoxysuccinic inhibitor of cysteine proteases E-64 with an additional biotin moiety which enables detection of covalently modified proteases with labelling intensity correlating with enzymatic activity (Greenbaum D, Medzihradszky KF, Burlingame A, Bogyo M: Epoxide electrophiles as activity-dependent cysteine protease profiling and discovery tools. Chem Biol 2000, 7: 569-81.). 1 µg of recombinant cathepsin B in 50 mM Tris, pH 5.5 containing 1 mM DTT, 5 mM MgCl2 and 250 mM sucrose was incubated with 0.1, 1, 10 in 50 µM 5-nitro-8-hydroxyquinoline (diluted from 10 mM DMSO stocks) for 1 h at room temperature. Samples were then labelled with 2 µM DCG-04 for an additional h at room temperature. After boiling in reducing sample buffer for 10 min samples were analyzed by 12.5 % SDS-PAGE and transferred to a nitrocellulose membrane. The latter was then blocked with 0.5 % Tween 20 in PBS overnight at 4 °C and incubated with 1 µg/ml streptavidin-horseradish peroxidase in 0.2 % Tween 20 in PBS for 1 h at room temperature. The membrane was washed five times with 0.2 % Tween 20 in PBS and the spots on the membrane were visualized with 0.5 mg/ml 3,3'-diaminobenzidine and 0.0005 % (v/v) H2O2 in 50 mM Tris, pH 7.5. […]

Cathepsin B [3] = molecular target: T1, Cathepsin B; experiment: Reversibility by mass spectrometry (ESI-MS of cathepsin B after incubation and dialysis); type: binding; conditions: equimolar inhibitor, 1 h room temperature, dialysis
Procedure: Third, reversibility of 5-nitro-8-hydroxyquinoline was also checked with mass spectrometry. Cathepsin B (4.4 µM) was activated in the activation buffer for 5 min at 37 °C. Afterwards, an equimolar amount of the inhibitor was added to the enzyme and incubated for 1 h at room temperature. The mixture was dialyzed against water five times using Microcon Centrifugal Filter Devices YM-10 to avoid salt interferences and to remove unbound molecules of the test compound. Samples were then prepared by adding an equal volume of acetonitrile containing 0.1 % formic acid and analyzed with ESI-MS on an AutoSpec Q instrument. As a positive control CA-074 was used.

MCF-10A neoT cells [4] = experiment: Extracellular DQ-collagen IV degradation, fluorescence intensity in medium; type: cell-based; conditions: 3 h, DQ-collagen IV 5 µg/ml
Procedure: Two experiments were set to differentiate between inhibition of intracellular and extracellular DQ-collagen IV degradation. Inhibition of extracellular DQ-collagen IV degradation was observed by monitoring the fluorescence intensity of degraded DQ-collagen IV in the medium in which MCF-10A neoT cells were grown. 5 × 10^4 MCF-10A neoT cells were plated into wells of a 96-well black plate and were allowed to attach over night. Cells were then incubated with 100 µl PBS containing 5-nitro-8-hydroxyquinoline, CA-074 or CA-074Me (10 µM) and DQ-collagen IV (5 µg/ml) for 3 h. Afterwards, the 80 µl of PBS was transferred into the empty wells and the fluorescence intensity was measured at 495 nm ± 5 nm excitation and 515 nm ± 5 nm emission wavelengths on Tecan Safire^2™. The experiment was performed in 8 parallels and DMSO was used as a control.

MCF-10A neoT cells [5] = experiment: Intracellular DQ-collagen IV degradation by flow cytometry; type: cell-based; conditions: 50 µM, shift in fluorescence intensity
Procedure: Inhibition of intracellular DQ-collagen IV degradation was observed by flow cytometry by a shift in fluorescence intensity. 5 × 10^4 MCF-10A neoT cells in complete medium were plated into the wells of a 24-well plate and allowed to attach over night. Afterwards, the medium was replaced with 500 µl of serum free medium with 5-nitro-8-hydroxyquinoline, CA-074 or CA-074Me (50 µM). After 2 h incubation the medium was again replaced with serum free medium containing inhibitors (50 µM) and DQ-collagen IV (5 µg/ml). DMSO was used as a control. For the experiment only viable cells were selected using propidium iodide. The measurements were performed on a FACS Calibur instrument (Beckton Dickinson, Inc.).

Cathepsin B [6] = molecular target: T1, Cathepsin B; conditions: cited from earlier work; for inhibit cathepsin B: background; for less potent in vitro than parent inhibitor: esterified cell permeable derivatives versus E-64 and CA-074

Work on `O=[N+]([O-])c1cc(CN2CCC(O)CC2)c(O)c2ncccc12` [Compound 5, 7-((4-Hydroxypiperidin-1-yl)methyl)-5-nitro-8-hydroxyquinoline] yielded a Ki (Cathepsin B [1]) of 130 ± 3.4 µM.
With `CCCNC(=O)[C@H]1O[C@@H]1C(=O)N[C@H](C(=O)N1CCC[C@H]1C(=O)O)[C@@H](C)CC` [CA-074] the “intensity of spots (DCG-04 labelling) versus DMSO control” value (Cathepsin B [2]) was “concentration dependent loss of spot intensity”, the “change of mass of the enzyme” value (Cathepsin B [3]) was 384 Da and the inhibition at 10 µM (MCF-10A neoT cells [4]; Homo sapiens, MCF-10A-neoT) was 31.1%. The “inhibition of intracellular DQ-collagen IV degradation” value (MCF-10A neoT cells [5]) was “only slightly inhibited; also recorded: did not” and the “inhibit cathepsin B” value (Cathepsin B [6]) was “nanomolar range”.
In the case of `CC(C)C[C@H](NC(=O)[C@H]1O[C@@H]1C(=O)O)C(=O)NCCCCN=C(N)N` [Compound E-64], the “inhibit cathepsin B” value (Cathepsin B [6]) is listed as “nanomolar range”.
`CC1CCN(Cc2cc([N+](=O)[O-])c3cccnc3c2O)CC1` [Compound 6, 7-((4-Methypiperidin-1-yl)methyl)-5-nitro-8-hydroxyquinoline] gave a Ki (Cathepsin B [1]) of 130 ± 3.5 µM.
Compound `O=[N+]([O-])c1cc(CN2CCCC(O)C2)c(O)c2ncccc12` (racemic) [Compound 8, 7-((3-Hydroxypiperidin-1-yl)methyl)-5-nitro-8-hydroxyquinoline] has a Ki (Cathepsin B [1]) of 110 ± 3.1 µM.
Work on `O=C(O)C1CCN(Cc2cc([N+](=O)[O-])c3cccnc3c2O)CC1` [Compound 7, 7-((4-Carboxypiperidin-1-yl)methyl)-5-nitro-8-hydroxyquinoline] yielded a Ki (Cathepsin B [1]) of 89 ± 3.3 µM.
Work on `O=[N+]([O-])c1cc(CN2CCOCC2)c(O)c2ncccc12` [Compound 2, 7-(Morpholinomethyl)-5-nitro-8-hydroxyquinoline] yielded a Ki (Cathepsin B [1]) of 119 ± 4.2 µM.
`CN1CCN(Cc2cc([N+](=O)[O-])c3cccnc3c2O)CC1` [Compound 4, 7-((4-Methylpiperazin-1-yl)methyl)-5-nitro-8-hydroxyquinoline] gave a Ki (Cathepsin B [1]) of 75.6 ± 4 µM.
For `CCOC(=O)[C@H]1O[C@@H]1C(=O)N[C@@H](CC(C)C)C(=O)NCCC(C)C` [Compound E-64d], the “less potent in vitro than parent inhibitor” value (Cathepsin B [6]) is listed as 100-1000 fold.
In the case of `O=[N+]([O-])c1cc(CN2CCCC2)c(O)c2ncccc12` [Compound 3, 7-(Pyrrolidinomethyl)-5-nitro-8-hydroxyquinoline], the Ki (Cathepsin B [1]) is reported as 118 ± 3.1 µM.
In the case of `CCCNC(=O)[C@H]1O[C@@H]1C(=O)N[C@H](C(=O)N1CCC[C@H]1C(=O)OC)[C@@H](C)CC` [CA-074Me], the “inhibition of extracellular DQ-collagen IV degradation” value (MCF-10A neoT cells [4]; 10 µM) is given as 33.8%, the “inhibition of intracellular DQ-collagen IV degradation” value (MCF-10A neoT cells [5]) is given as “significantly inhibited” and the “less potent in vitro than parent inhibitor” value (Cathepsin B [6]) is given as 100-1000 fold.
